Experimental data: patent US20120095185A1, “PROCESS FOR CHELATING COPPER IONS USING CB-TE2A BIFUNCTIONAL CHELATE” (NORDION (CANADA) INC., priority 2010, published 2012)

Assays:
[1] = Conversion of isomer F1 (12b) to F2 (12a) in chloroform, followed by 13C-NMR; format: physicochemical; settings: 14 days at room temperature
From the text: FIG. 7A illustrates the aliphatic region of the ^13C-NMR spectrum of the F1 isomer (12b) in CDCl3 (bottom) and the aliphatic region of the ^13C-NMR spectrum of the F2 isomer (12a) in CDCl3 (top). FIG. 7B illustrates the aliphatic region of the ^13C-NMR spectra of the F1 isomer (12b) in CDCl3 at 0 days, 2 days, 6 days, 9 days and 14 days, showing that the F1 isomer (12b) slowly converts to the F2 isomer (12a).
After 14 days at room temperature, the conversion 12b (F1) to 12a (F2) was approximately 50% complete.

[2] = Optimisation of Cu-64 radiolabeling of 13a and 13b to >95% radiochemical yield; settings: depends on CB-TE2A BFC concentration
From the text: As used herein, the terms “degree of complexation” and “percent complexation” are used interchangeably and are defined to mean the percentage of the ion that is successfully complexed with the bifunctional chelate. Here percent complexation is expressed as radiochemical yield, which is the yield of radiolabeled complex expressed as a fraction of the radioactivity originally present. The value of radiochemical yield obtained when making the ion complexes of the present reaction can be greater than 90% or greater than 95%, as measured by reverse phase chromatography (HPLC).
The conditions required to radiolabel 13a and 13b with Cu-64 in >95% radiochemical yield were optimized for pH, temperature and reaction time (Table 1). The exact same radioisotope lot, buffer solutions, and conditions were used for the reaction and the analysis of both 13a and 13b.
Cu-64 radiolabeled 13a and 13b are distinct species with different retention times by HPLC. The analysis was conducted with a Phenomenex hydrosynergy RPC18 column (4.6×150 mm) using a gradient of 98% trifluoracetic acid in water (0.01% v/v) 2% acetonitrile to 50% trifluoracetic acid in water (0.01% v/v) 50% acetonitrile over 30 min at 1 mL/min.

SMILES | Conversion 12b (F1) to 12a (F2) [1] | Reaction time [2]
CCOC(=O)CN1CCCN2CCN(CCCN(C(CCc3ccc([N+](=O)[O-])cc3)C(=O)OC)CC2)CC1 (stereo not drawn) [12b, methyl 2-(11-(2-ethoxy-2-oxoethyl)-1,4,8,11-tetraazabicyclo[6.6.2]hexadecan-4-yl)-4-(4-nitrophenyl)butanoate] | approximately 50% | –
O=C(O)CN1CCCN2CCN(CCCN(C(CCc3ccc([N+](=O)[O-])cc3)C(=O)O)CC2)CC1 (stereo not drawn) [13a] | – | 10-30 minutes depending on
O=C(O)CN1CCCN2CCN(CCCN(C(CCc3ccc([N+](=O)[O-])cc3)C(=O)O)CC2)CC1 (stereo not drawn) [13b] | – | 60 min
